From patent US10208033B2, “β-carboline, dihydro-β-carboline and tetrahydro-β-carboline alkaloid derivatives and preparation methods same and use in aspects of preventing and treating plant viruses, fungicides and insecticides” (NANKAI UNIVERSITY, priority 2013, dated 2019)

Tests used:
cucumber fusarium wilt = assay: Fungicidal (bactericidal) activity in vitro, PDA colony diameter; format: cell-based; settings: 50 mg/kg
Phytophthora capsici = assay: as above; format: cell-based; settings: 50 mg/kg
Botrytis cinerea = assay: as above; format: cell-based; settings: 50 mg/kg
[1] = system: tobacco mosaic virus (TMV); assay: Anti-TMV in vitro effect (half-leaf soaking); format: cell-based, tobacco mosaic virus (host Nicotiana tabacum L.cv.Xanthi NN)
Rhizoctonia cereali = assay: Fungicidal (bactericidal) activity in vitro, PDA colony diameter; format: cell-based; settings: 50 mg/kg
Bipolaria maydis = assay: organism not typed; format: cell-based; settings: 50 mg/kg
[2] = system: Colletotrichum orbiculare; assay: Fungicidal (bactericidal) activity in vitro, PDA colony diameter; format: cell-based; settings: 50 mg/kg
[3] = system: tobacco mosaic virus (TMV); assay: Anti-TMV in vivo protective effect; set-up: species or system tobacco mosaic virus (host Nicotiana tabacum L.cv.Xanthi NN)
Fusarium fujikuroi = assay: Fungicidal (bactericidal) activity in vitro, PDA colony diameter; format: cell-based; settings: 50 mg/kg
[4] = system: tobacco mosaic virus (TMV); assay: Anti-TMV in vivo therapeutic effect; set-up: species or system tobacco mosaic virus (host Nicotiana tabacum L.cv.Xanthi NN)
corn borers = settings: concentration 600 mg/kg
Rhizoctonia solani = assay: Fungicidal (bactericidal) activity in vitro, PDA colony diameter; format: cell-based; settings: 50 mg/kg
[5] = system: tobacco mosaic virus (TMV); assay: Anti-TMV in vivo inactivation; set-up: species or system tobacco mosaic virus (host Nicotiana tabacum L.cv.Xanthi NN)
armyworms = format: in vivo; settings: concentration 600 mg/kg
potato late blight = assay: microbe, parasite or virus in culture; format: cell-based
mosquito larvae = assay: whole plant or invertebrate; settings: concentration 10 mg/kg, 24 h
Outline: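 Early fourth-instar Culex pipiens pallens larvae from an indoor colony, 10 per beaker, exposed to test compound at 5 ppm in water, diluted from a 1000 ppm acetone mother solution. Blank: water containing 0.5 mL test solvent.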

Macrophoma kawatsukai = assay: Fungicidal (bactericidal) activity in vitro, PDA colony diameter; format: cell-based; settings: 50 mg/kg
Fusarium graminearumt = assay: microbe, parasite or virus in culture; format: cell-based; settings: 50 mg/kg
cotton bollworms = assay: whole plant or invertebrate; settings: concentration 600 mg/kg
Description: Experimental method of cotton bollworms: feed and drug mixing method: measure 3 mL of prepared solution and add it to about 27 g of newly prepared feed, thereby obtaining needed concentration through dilution by 10 times.

Cercospora arachidicola = assay: Fungicidal (bactericidal) activity in vitro, PDA colony diameter; format: cell-based; settings: 50 mg/kg
Alternaria solani = assay: as above; format: cell-based; settings: 50 mg/kg
Sclerotinia scleotiorum = assay: as above; format: cell-based; settings: 50 mg/kg

SMILES | Bactericidal activity (%) Cucumber fusarium wilt (cucumber fusarium wilt) [%] | Bactericidal activity (%) Phytophthora capsici (Phytophthora capsici) [%] | Bactericidal activity (%) Botrytis cinerea (Botrytis cinerea) [%] | Relative inhibition rate (%) In vitro activity ([1]; treatment dose 100 μg/mL) [%] | Relative inhibition rate (%) In vitro activity ([1]; treatment dose 500 μg/mL) [%] | Bactericidal activity (%) Rhizoctonia cereali (Rhizoctonia cereali) [%] | Bactericidal activity (%) Bipolaria maydis (Bipolaria maydis) [%] | Bactericidal activity (%) Colletotrichum orbiculare [2] [%] | Relative inhibition rate (%) In vivo protection ([3]; treatment dose 100 μg/mL) [%] | Relative inhibition rate (%) In vivo protection ([3]; treatment dose 500 μg/mL) [%] | Bactericidal activity (%) Fusarium fujikuroi (Fusarium fujikuroi) [%] | Relative inhibition rate (%) In vivo therapy ([4]; treatment dose 100 μg/mL) [%] | Relative inhibition rate (%) In vivo therapy ([4]; treatment dose 500 μg/mL) [%] | Corn borer Mortality (%) (corn borers) | Bactericidal activity (%) Rhizoctonia solani (Rhizoctonia solani) [%] | Relative inhibition rate (%) In vivo inactivation ([5]; treatment dose 100 μg/mL) [%] | Relative inhibition rate (%) In vivo inactivation ([5]; treatment dose 500 μg/mL) [%] | Armyworm Mortality (%) (armyworms) | Bactericidal activity (%) potato late blight (potato late blight) [%] | Mosquito larvae Mortality (%) (mosquito larvae) | also measured
C[C@@H]1N[C@H](C(=O)NN=CC(C)(C)C)Cc2c1[nH]c1ccccc21 [Ic-26, (1S, 3S)—N′-(2,2-dimethylpropylidene)-1-methyl-2,3,4,9-tetrahydropyridino [3,4-b] indol-3-formylhydrazine] | 4.5 | 12.1 | 36.1 | 27.5 | 64.4 | 48.6 | 20.0 | 24.0 | 33.4 | 66.8 | 29.4 | 36.8 | 68.2 | 30 | 8.3 | 28.9 | 63.7 | 25 | 17.4 | 55 | Bactericidal activity (%) Macrophoma kawatsukai (Macrophoma kawatsukai): 36.4%; Bactericidal activity (%) Fusarium graminearumt (Fusarium graminearumt): 46.2%; Cotton bollworm Mortality (%) (cotton bollworms): 20%; Bactericidal activity (%) Cercospora arachidicola (Cercospora arachidicola): 18.2%; Bactericidal activity (%) Alternaria solani (Alternaria solani): 19.0%; Bactericidal activity (%) Sclerotinia scleotiorum (Sclerotinia scleotiorum): 15.4%
CC(=NNC(=O)[C@@H]1Cc2c([nH]c3ccccc23)[C@H](C)N1)c1ccccc1 [Ic-27, (1S, 3S)—N′-(1-phenylethylidene)-1-methyl-2,3,4,9-tetrahydropyridino [3,4-b] indol-3-formylhydrazine] | 0.0 | 36.4 | 69.4 | 9.2 | 30.2 | 51.4 | 36.0 | 52.0 | 7.9 | 37.2 | 29.4 | 11.1 | 34.8 | 30 | 15.3 | 13.6 | 39.5 | 20 | 26.1 | 40 | Bactericidal activity (%) Macrophoma kawatsukai (Macrophoma kawatsukai): 39.4%; Bactericidal activity (%) Fusarium graminearumt (Fusarium graminearumt): 61.5%; Cotton bollworm Mortality (%) (cotton bollworms): 30%; Bactericidal activity (%) Cercospora arachidicola (Cercospora arachidicola): 36.4%; Bactericidal activity (%) Alternaria solani (Alternaria solani): 33.3%; Bactericidal activity (%) Sclerotinia scleotiorum (Sclerotinia scleotiorum): 11.5%
